{"source": "patent US11899022B2", "about": "“Multiplexed proteomics and predictive drug candidate assessment” (The General Hospital Corporation, priority 2017, dated 2024)", "key": {"[1]": {"tested_on": "breast cancer cell lines with dysregulated BRCA1-associated genome surveillance complex", "experiment": "Drug response (AUC) of cell lines with vs without dysregulation in the BRCA1-associated genome surveillance complex", "type": "cell-based", "details": "41 breast cancer cell lines, AUC ratio dysregulated/not dysregulated, FIG. 32A", "experimental": "(§1) The drug candidates were screened at different concentrations, and the response to each drug candidate was measured as an area under the curve (AUC). Three known complexes—the BRCA1-associated genome surveillance complex, the centromere, and the proteasome—were selected from the CORUM database, and for each complex, the cell lines evaluated were separated into a first group in which cell lines carried dysregulated protein-protein interactions on any of the proteins in the complex, and a second group in which cell lines carried no dysregulations on any of the proteins in the complex.\n(§2) Each figure is a plot showing how protein-protein interaction dysregulation in one of the selected complexes affects the responses of the evaluated breast cancer cell lines to different drug candidates. In each plot, every data point represents a different drug candidate. The horizontal axis in each plot represents the base 2 logarithm of the ratio of the drug candidate response in cell lines with dysregulation to the drug candidate response in cell lines without dysregulation. The vertical axis in each plot, which corresponds to the base 10 logarithm of the Grubbs test p-value, represents the significance of the drug candidate response difference."}, "Aurora Kinases": {"tested_on": "Aurora Kinases", "details": "cited from earlier work"}, "H3122 cell line": {"tested_on": "H3122 cell line", "experiment": "Ceritinib sensitivity of parental H3122 cell line", "type": "cell-based", "details": "Homo sapiens, NCI-H3122; ALK-positive H3122 parental cell line", "experimental": "(§3) In the particular study reported here, resistance to the small molecule ALK inhibitor Ceritinib was studied. The patient-derived cell line H3122 is a NSCLC line with an EML4-ALK fusion, and it is sensitive to Ceritinib. To simulate the clinical development of therapeutic resistance following initial treatment, this cell line was cultured over a period of 6 months with low but increasing doses of Ceritinib. […] These clones were expanded and comprise the cell lines LDKR1-4.\n(§4) FIG. 5 is a schematic diagram showing the development of the cell lines."}, "LDKR1-4 cell lines": {"tested_on": "LDKR1-4 cell lines", "experiment": "Ceritinib sensitivity of resistant clones LDKR1-4", "type": "cell-based", "experimental": "as §3, §4"}, "ALK": {"target": "ALK (Homo sapiens, UniProt Q9UM73)", "sequence (Q9UM73 with tags, fused parts or gaps)": "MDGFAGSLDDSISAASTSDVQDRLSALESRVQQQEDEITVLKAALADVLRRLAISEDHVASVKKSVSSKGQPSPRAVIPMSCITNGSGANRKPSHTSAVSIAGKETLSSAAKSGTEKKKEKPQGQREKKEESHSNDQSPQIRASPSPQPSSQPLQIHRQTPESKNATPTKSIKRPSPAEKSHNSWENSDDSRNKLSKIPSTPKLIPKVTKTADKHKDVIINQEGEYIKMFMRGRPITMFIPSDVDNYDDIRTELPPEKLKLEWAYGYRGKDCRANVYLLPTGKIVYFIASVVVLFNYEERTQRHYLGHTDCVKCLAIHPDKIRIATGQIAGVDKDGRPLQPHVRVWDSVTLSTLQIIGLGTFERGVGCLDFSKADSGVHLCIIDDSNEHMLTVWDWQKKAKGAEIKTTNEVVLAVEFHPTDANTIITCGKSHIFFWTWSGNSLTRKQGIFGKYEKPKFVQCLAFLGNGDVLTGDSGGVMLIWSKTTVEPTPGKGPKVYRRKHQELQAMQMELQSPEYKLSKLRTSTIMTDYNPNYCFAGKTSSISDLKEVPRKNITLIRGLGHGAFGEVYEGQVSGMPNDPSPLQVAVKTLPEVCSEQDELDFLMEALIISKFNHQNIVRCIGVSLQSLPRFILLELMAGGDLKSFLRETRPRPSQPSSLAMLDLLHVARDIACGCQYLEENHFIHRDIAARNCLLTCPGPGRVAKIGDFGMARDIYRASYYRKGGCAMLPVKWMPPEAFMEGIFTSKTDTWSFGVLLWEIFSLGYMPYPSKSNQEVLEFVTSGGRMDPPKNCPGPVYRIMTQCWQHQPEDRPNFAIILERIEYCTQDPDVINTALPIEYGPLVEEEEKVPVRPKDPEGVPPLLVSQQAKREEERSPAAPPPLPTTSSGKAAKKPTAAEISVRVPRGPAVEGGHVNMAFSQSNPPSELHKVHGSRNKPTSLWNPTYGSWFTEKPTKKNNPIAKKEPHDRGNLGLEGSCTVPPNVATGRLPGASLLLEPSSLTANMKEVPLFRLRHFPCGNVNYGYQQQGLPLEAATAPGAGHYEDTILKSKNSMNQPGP", "experiment": "Proteomic/phosphoproteomic profiling of ALK phosphorylation after Ceritinib treatment", "type": "cell-based", "experimental": "The H3122 parental and LDKR1-4 cell lines were each grown in culture with or without the addition of Ceritinib for 24 hours, and harvested cells were subsequently processed for both proteomic and phosphoproteomic analyses. Specifically, each of the cell lines was cultured in RPMI-1640 media supplemented with 10% FBS, 100 units/mL penicillin, and 100 μg/mL streptomycin. Cells were treated for 24 hours with 300 nM Ceritinib (also known as LDK378). Cells were collected, and the cell pellets were resuspended in mammalian lysis buffer and lysed by passage through a 21 gauge needle. The lysate was centrifuged at 15,000×g for 5 minutes at 4° C., and insoluble debris was discarded.\nThe lysates were then prepared for mass spectrometry analysis. Samples were reduced with DTT, alkylated with iodoacetamide, and precipitated with methanol/chloroform. […] Samples were quenched with 1% TFA and desalted using Sep-Pak C18 (SPE) cartridges (obtained from Waters Corp., Milford, MA). The peptide concentration of each sample was determined using a BCA assay.\nFor phosphoproteomic analysis, 2.0 mg of digested peptides were enriched for phosphopeptides using titanium dioxide beads, labeled with TMT10-plex reagents, and further enriched with a phosphotyrosine antibody. Specifically, 8 mg of titanium dioxide beads were incubated with the peptide in binding buffer (2 M lactic acid in 50% ACN/50% H2O) for 1 hour with gentle shaking. […] Samples were acidified and desalted over Sep-Pak C18 SPE cartridges."}, "[2]": {"tested_on": "breast cancer cell lines with dysregulated proteasome complex", "experiment": "Drug response (AUC) of cell lines with vs without dysregulation in the proteasome complex", "type": "cell-based", "details": "41 breast cancer cell lines, AUC ratio, FIG. 32C", "experimental": "as §1\nas §2, with “difference. […]” for “difference.”"}, "[3]": {"target": "T1, polo-like Kinase 4 (PLK4) (Homo sapiens, UniProt O00444)", "T1 sequence (O00444 1-970)": "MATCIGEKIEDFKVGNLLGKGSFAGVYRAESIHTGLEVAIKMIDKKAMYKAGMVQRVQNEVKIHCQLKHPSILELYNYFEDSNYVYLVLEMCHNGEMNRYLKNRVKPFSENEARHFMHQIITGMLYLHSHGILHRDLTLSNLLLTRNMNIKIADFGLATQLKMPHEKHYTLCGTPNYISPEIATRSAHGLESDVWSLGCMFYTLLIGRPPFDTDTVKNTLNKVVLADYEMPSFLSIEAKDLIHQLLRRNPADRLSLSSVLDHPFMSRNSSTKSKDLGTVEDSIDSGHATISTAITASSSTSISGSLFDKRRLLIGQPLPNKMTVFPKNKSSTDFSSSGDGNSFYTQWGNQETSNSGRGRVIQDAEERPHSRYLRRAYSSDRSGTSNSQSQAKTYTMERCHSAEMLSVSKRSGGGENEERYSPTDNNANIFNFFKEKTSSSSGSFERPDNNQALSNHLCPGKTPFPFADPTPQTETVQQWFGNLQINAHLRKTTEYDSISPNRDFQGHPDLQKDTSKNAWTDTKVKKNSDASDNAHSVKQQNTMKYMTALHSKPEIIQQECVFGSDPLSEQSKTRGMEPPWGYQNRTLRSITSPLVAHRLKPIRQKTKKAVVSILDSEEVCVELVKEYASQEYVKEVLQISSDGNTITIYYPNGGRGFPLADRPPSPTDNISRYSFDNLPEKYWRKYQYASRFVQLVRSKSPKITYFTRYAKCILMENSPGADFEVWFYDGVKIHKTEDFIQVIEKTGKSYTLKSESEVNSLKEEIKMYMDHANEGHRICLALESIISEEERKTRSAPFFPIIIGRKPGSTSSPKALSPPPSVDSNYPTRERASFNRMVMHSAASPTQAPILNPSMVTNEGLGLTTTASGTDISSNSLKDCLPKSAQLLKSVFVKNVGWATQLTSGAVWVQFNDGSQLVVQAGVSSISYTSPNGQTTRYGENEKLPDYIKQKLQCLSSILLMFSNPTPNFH", "details": "cited from earlier work"}, "[4]": {"tested_on": "breast cancer cell lines with dysregulated centromere complex", "experiment": "Drug response (AUC) of cell lines with vs without dysregulation in the centromere complex", "type": "cell-based", "details": "41 breast cancer cell lines, AUC ratio, FIG. 32B", "experimental": "as §1, §2"}, "[5]": {"details": "parental H3122, 300 nM Ceritinib, 24 hours, ratio to parental with no drug"}}, "data": [{"compound": "Nc1ccn([C@@H]2O[C@H](CO)[C@@H](O)C2(F)F)c(=O)n1", "note": "[Gemcitabine]", "values": [{"measurement": "effect of dysregulation in the genome surveillance complex on cell line response to drug", "setting": "[1]", "result": "sensitize"}]}, {"compound": "Cc1cc(Nc2nc(N[C@@H](C)c3ncc(F)cn3)ncc2Cl)n[nH]1", "note": "[AZD1480]", "values": [{"measurement": "inhibition of Aurora Kinases", "setting": "Aurora Kinases", "result": "potently inhibit"}]}, {"compound": "Cc1cc(Nc2ncc(Cl)c(Nc3ccccc3S(=O)(=O)C(C)C)n2)c(OC(C)C)cc1C1CCNCC1", "note": "[Ceritinib]", "values": [{"measurement": "IC50", "setting": "H3122 cell line", "result": 53, "unit": "nM"}, {"measurement": "IC50 relative to the parental sensitive cell line", "setting": "LDKR1-4 cell lines; four resistant clones vs parental H3122", "result": "at least twenty times higher"}, {"measurement": "IC50", "setting": "LDKR1-4 cell lines; resistant clones LDKR1-4", "result": "1490 to 3900", "unit": "nM"}, {"measurement": "inhibition of ALK activity in resistant cell lines", "setting": "ALK; LDKR1-4, Ceritinib treatment", "result": "continued to be effective at inhibiting ALK activity in at least three of the four resistant cell lines"}, {"measurement": "ALK Thr 1506/Tyr 1507/Ser 1509 phosphorylation upon drug treatment", "setting": "ALK; [5]", "result": "decreasing fourfold"}, {"measurement": "ALK Tyr 1078 phosphorylation upon drug treatment", "setting": "ALK; [5]", "result": "decreased"}]}, {"compound": "CC(C)C[C@H](NC(=O)[C@H](CCc1ccccc1)NC(=O)CN1CCOCC1)C(=O)N[C@@H](Cc1ccccc1)C(=O)N[C@@H](CC(C)C)C(=O)[C@@]1(C)CO1", "note": "[Carfilzomib]", "values": [{"measurement": "effect of dysregulation in the proteasome complex on cell line response to drug", "setting": "[2]", "result": "densensitized"}]}, {"compound": "Bleomycin", "values": [{"measurement": "effect of dysregulation in the genome surveillance complex on cell line response to drug", "setting": "[1]", "result": "sensitize"}]}, {"compound": "COc1cc2c(Oc3ccc(NC(=O)C4(C(=O)Nc5ccc(F)cc5)CC4)cc3F)ccnc2cc1OCCCN1CCOCC1", "note": "[XL-880, foretinib]", "values": [{"measurement": "inhibition of Aurora Kinases", "setting": "Aurora Kinases", "result": "potently inhibit"}, {"measurement": "inhibition of polo-like Kinase 4 (PLK4)", "setting": "[3]", "result": "inhibits"}]}, {"compound": "O=C(/C=C/c1ccc(CN(CCO)CCc2c[nH]c3ccccc23)cc1)NO", "note": "[LAQ824]", "values": [{"measurement": "effect of dysregulation in the centromere complex on cell line response to drug", "setting": "[4]", "result": "sensitize"}]}, {"compound": "NC(=O)Nc1sc(-c2ccc(F)cc2)cc1C(N)=O", "note": "[TPCA-1]", "values": [{"measurement": "inhibition of Aurora Kinases", "setting": "Aurora Kinases", "result": "potently inhibit"}]}, {"compound": "C#Cc1cccc(Nc2ncnc3cc(OC)c(OCCCCCCC(=O)NO)cc23)c1", "note": "[CUDC-101]", "values": [{"measurement": "effect of dysregulation in the centromere complex on cell line response to drug", "setting": "[4]", "result": "sensitize"}]}, {"compound": "O=C(CCCCCCNC(=O)c1cnc(N(c2ccccc2)c2ccccc2)nc1)NO", "note": "[ACY-1215]", "values": [{"measurement": "effect of dysregulation in the centromere complex on cell line response to drug", "setting": "[4]", "result": "sensitize"}]}]}
